According to patent publication US6207648A, “Methods of using cytochrome P450 reductase for the enhancement of P450-based anti-cancer gene therapy” (priority 1998, dated 2001):
Entries after “also recorded” stand apart in the source; their conditions may differ. Read-outs that look alike come from different tables or passages of the source.

Tests used:
parental 9L cells = experiment: Limited dilution assay of conditioned media, bystander killing of parental 9L cells; assay type: cell-based, rat; details: PR11, PR7 vs P3, P17; 2 mM CPA 48 h
Procedure: FIG. 5 is a graph depicting the effects of culture media from P450 and RED-transduced tumor cells incubated with CPA, on the survival of wild-type tumor cells. […] Parental 9L cells seeded in 30 mm plates (10^4 cells/well) in duplicate were cultured with 5-50% of condition media collected from each of the indicated cell lines (1.5×10^6) incubated with 2 mM CPA for 48 hours as described below in the "Materials Methods" section of Example 1. Five days after treatment, the number of viable parental 9L cells was determined using a hemacytometer based on trypan blue exclusion (mean for duplicate values).
Limited dilution assay to evaluate bystander killing effect: 9L cells were seeded in 6-well plates at 1.5×10^6 cells/well for 12 hours, and treated with 2 mM CPA for 48 hours. The conditioned media from each well was collected, diluted 5-50% into fresh media as indicated for each experiment, and added into wells of a second set of 6-well plates pre-seeded with parental 9L cells (10^4 cells/well). Cultures were maintained for 5-7 days and colonies were scored as described for the clonogenic assay.

9L/pBabe bystander cells = experiment: Bystander cytotoxicity/co-culture with cell culture inserts; assay type: cell-based, rat; details: for cytotoxicity at 670 µM: Rattus norvegicus, 96 h, 9L/2B6/reductase, 0.67 mM
Procedure: FIGS. 18A and 18B are graphs depicting the bystander cytotoxicity of 9L/2B6/reductase and 9L/2B6 cells. In FIG. 18A, bystander cytotoxicity of 9L/2B6/reductase cells is compared to that of 9L/2B6 cells. In both cases, 9L/pBabe served as the bystander cells. 9L/pBabe cells were plated in duplicate at 10^5 cells/well of a 6-well plate (lower chamber). 9L/2B6/reductase cells or 9L/2B6 cells were plated in 25 mm cell culture inserts (upper chamber) at concentrations ranging from 10^4 to 6×10^5 cells, corresponding to ratios of 0.1 to 6 relative to the bystander 9L/pBabe cells growing in the lower chamber, as shown on the x-axis. Cells were incubated in a total volume of 3 ml Dulbecco's minimal essential medium (DMEM), 10% FBS, containing 1 mM CPA, final CPA concentration.
The experimental design was the same as in FIG. 18A, except that the final drug concentration was 0.67 mM. Data shown for both panels correspond to the survival of 9L/pBabe bystander cells in the lower chamber.
Bystander cytotoxicity/co-culture experiments: 9L/pBabe cells were plated in duplicate at 10^5 cells/well in the lower chamber of a 6-well Falcon co-culture plate (30 mm diameter wells) (Falcon 3046). 9L/2B6/reductase cells were plated in 25 mm cell culture inserts (0.4 μm pore size; Falcon 3090), at dilutions ranging from 0. 1 to 6 times the number of 9L/pBabe cells plated in the lower chamber. […] Relative cell numbers were quantitated 4 days later by crystal violet staining.

[1] = in vivo; cited from earlier work

In the case of `O=P1(N(CCCl)CCCl)NCCCO1` (stereo not drawn) [CPA, cyclophosphamide], the “cytotoxicity of conditioned media of CYP2B1+ RED+++ vs CYP2B1+ cells incubated with CPA” value (parental 9L cells) is reported as “substantially more cytotoxic”, the “bystander killing of 9L/pBabe cells by 9L/2B6/reductase vs 9L/2B6 cells” value (9L/pBabe bystander cells; 1 mM CPA, cell ratio for 50% bystander cytotoxicity) is reported as “approximately 3 fold” and the “bystander cytotoxic effect on non-P450-expressing 9L cells” value (9L/pBabe bystander cells; 2B6 and RED-transduced tumor cells) is reported as “strong cell contact-independent bystander cytotoxic effect; also recorded: striking bystander cytotoxic effect”. For the same molecule, the cytotoxicity at 670 µM (9L/pBabe bystander cells; P450:non-P450 ratio approximately 0.5-1, read-out: bystander toxicity toward non-P450 tumor cells) was about 40%, the cytotoxicity at 670 µM (9L/pBabe bystander cells; cell ratio >3, read-out: bystander toxicity toward non-P450 cells) was at least 80% and the “side effects of systemic distribution of drug and alkylating metabolites” value [1] was “cardiotoxicity, renal toxicity, marrow suppression, and neurotoxoxicity”.
